For experiment [1], the system named is FGFR3 (fibroblast growth factor receptor 3). The experiment is described as follows: Deletion of protein encoded by immunoglobulin gene-translocated partner gene in KMS-11 cells (Western blotting). It counts as cell-based, human. Conditions: 10 μmol/L and 1.0 μmol/L, 24 hours, FIG. 1. On the procedure:
(§1) Human multiple myeloma-derived KMS-11 cells [In Vitro Cell. Dev. Biol., 25, 723 (1989)], which had been diluted with a 10% fetal calf serum-containing RPMI 1640 (incubation medium) to 100,000 cellImL, were put in a 6-well plastic plate for cell incubation (Nunc), in an amount of 3 mL/well. It is reported that the KMS-11 cells express a large quantity of FGFR3 (fibroblast growth factor receptor 3) as a result of translocation between the immunoglobulin gene in 14q32 and the FGFR3 gene in 4p16.3 [Blood 90, 4062 (1997)]. […]
(§2) To the thus-collected cells, added was a cooled cytolysis buffer (50 mmol/L HEPES NaOH, pH 7.4, 250 mmol/L sodium chloride, 1 mmol/L ethylenediamine-tetraacetic acid, 1% Nonidet P-40, 1 mmol/L dithiothreitol, 1 mmol/L phenylmethylsulfonyl fluoride, 5 μg/mL leupeptin), and kept at 4° C. for 30 minutes for cytolysis. […] The protein concentration in the resulting supernatant was measured, and samples were prepared so as to have the same protein amount for each lane, and these were subjected to SDS (sodium dodecylsulfate)-polyacrylamide gel electrophoresis for protein separation.
(§3) Thus separated, the protein sample was transferred onto a polyvinylidene difluoride membrane (Millipore). […] After further reaction with an ECL reagent (Amersham Biosciences), the protein bands were detected on an X-ray film. […]

Experiment [2] has as its system Erk2. The experiment is described as follows: Western blotting of non-Hsp90 client protein in KMS-11 cells. It counts as cell-based, human. The settings on record: 10 μmol/L and 1.0 μmol/L, 24 hours, FIG. 1. As for the experimental part: as §1, §2, §3
A general note: Immunoblotting shows a protein as a band on a membrane.

Experiment [3] relates to human multiple myeloma-derived KMS-11 cells. The experiment is described as follows: Cell growth inhibition test with KMS-11 cells (WST-1). It is filed as cell-based. Conditions: 72 hours, read-out: 50% growth inhibition concentration (GI50). As for the experimental part:
In a 96-well plate (Nunc), human multiple myeloma-derived KMS-11 cells were sown in an amount of 4000 cells/well, and pre-incubated in 10% FCS-containing RPMI 1640 (Nissui) (incubation medium) in a 5% carbon dioxide incubator at 37° C. for 24 hours. Next, a DMSO solution of a test compound controlled at 10 mmol/L was stepwise diluted with the incubation medium, and added to each well in a total amount of 100 μL/well, and further incubated in the 5% carbon dioxide incubator at 37° C. for 72 hours. After the incubation, WST-1-labeled mixture (Rosh Diagnostic) diluted 2-fold with the incubation medium was added thereto in an amount of 20 μL/well, and incubated in the 5% carbon dioxide incubator at 37° C. for 2 hours. Using a microplate spectrophotometer (Biorad's Model 550), the absorbance at 450 nm and 655 nm of each well was measured. The cell growth inhibition activity of the test compound was indicated by the 50% growth inhibition concentration (GI50) thereof, like in Test Example 2.
(Tetrazolium assays rely on reduction of a dye to a coloured formazan, in cell work by metabolically active cells.)

Experiment [4] deals with human chronic myelocytic leukemia-derived K562 cells. The experiment can be described thus: Cell growth inhibition test with K562 cells (WST-1). The settings on record: 72 hours, read-out: 50% growth inhibition concentration (GI50). It counts as cell-based. An outline of the steps: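 K562 cells at 1500 cells/well in 10% FCS RPMI 1640, pre-incubated 5 h, then exposed to serially diluted compound for 72 h at 37° C, 5% CO2. Viability read by WST-1 after 2 h (absorbance 450/655 nm); GI50 reported.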

Some results are limits rather than exact numbers.

For `CCc1c(O)cc(O)c(-c2ccccc2)c1CCc1ocnc1C(=O)O` [Compound 209, 5-[2-(2-Ethyl-3,5-dihydroxy-6-phenylphenyl)ethyl]-1,3-oxazole-4-carboxylic acid], in experiment [1], the “deletion of FGFR3 encoded by the immunoglobulin gene-translocated partner gene” value was “deletion of FGFR3”. Moreover, in experiment [2], the “protein amount of Erk2 (non-Hsp90 client protein)” value is recorded as “no change”. Besides, the GI50 in experiment [3] and in experiment [4] was no more than 50 µM in each case.
On to `CCc1c(O)cc(O)c(-c2ccccc2)c1CC1O[C@H](CO)[C@@H](CO)O1` [Compound 218, 5-{[(4R,5R)-4,5-bis(hydroxymethyl)-1,3-dioxolan-2-yl]methyl}-6-ethyl-4-phenylbenzene-1,3-diol], for which the “deletion of FGFR3 encoded by the immunoglobulin gene-translocated partner gene” value in experiment [1] is listed as “deletion of FGFR3”. Also, the “protein amount of Erk2 (non-Hsp90 client protein)” value in experiment [2] was “no change”. Further, the GI50 in experiment [3] and in experiment [4] was no more than 50 µM in each case.

For the origin of these results see patent US7538241B2, “Hsp90 family protein inhibitors” (Kyowa Hakko Kogyo Co., Ltd., priority 2003, dated 2009).
